Active and inactive are the calls of the source. The rule behind the calls is not given here.
Test system: GENE-TOX genotoxicity assays, various organisms and cells
Assay: GENE-TOX mutagenicity studies
Conditions: for call: Assay Type: In vivo carcinogenicity studies, Assay Code: CCG+
[1] = Species/Cell Type: Salmonella typhimurium (one or more of the five standard strains: TA98, TA100, TA1535, TA1537, and TA1538), Assay Type: Histidine reverse gene mutation, Ames assay, Assay Code: SALT, Evaluation Type: Evaluation A (Pre-1980)
[2] = Species/Cell Type: Drosophila melanogaster, Assay Type: Sex-linked recessive lethal gene mutation, Assay Code: SRLT, Evaluation Type: Evaluation A (Pre-1980)
[3] = Species/Cell Type: Escherichia coli polA (W3119 vs P3478), Assay Type: Rec-assay, DNA effects (bacterial DNA repair), Assay Code: RE1T, Evaluation Type: Evaluation A (Pre-1980)
[4] = Species/Cell Type: Fischer rat embryo (RLV/1706) cells, Assay Type: Cell transformation, viral enhanced, Assay Code: CTR+, Evaluation Type: Evaluation A (Pre-1980)
[5] = Species/Cell Type: Human diploid fibroblasts, Assay Type: Unscheduled DNA synthesis (UDS) in vitro, DNA effects, Assay Code: UDH-, Evaluation Type: Evaluation A (Pre-1980)
[6] = Species/Cell Type: Neurospora crassa, Assay Type: Forward gene mutation, Assay Code: NEF+, Evaluation Type: Evaluation A (Pre-1980)
[7] = Species/Cell Type: Nonhuman, Evaluation Type: Evaluation A (Pre-1980)
[8] = Species/Cell Type: Nonhuman, Assay Type: Sister-chromatid exchange (SCE) in vivo, Assay Code: SC3+, Evaluation Type: Evaluation B (Post-1980)
[9] = Species/Cell Type: Rat primary hepatocytes, Assay Type: Unscheduled DNA synthesis (UDS) in vitro, DNA effects, Assay Code: UDP+D, Dose Response: With dose response, Evaluation Type: Evaluation A (Pre-1980)
[10] = Species/Cell Type: Human lymphocytes, Assay Type: Sister-chromatid exchange (SCE) in vitro, Assay Code: SCL+D, Dose Response: With dose response, Evaluation Type: Evaluation B (Post-1980)
[11] = Species/Cell Type: Human, Assay Type: Sister-chromatid exchange (SCE) in vitro, Assay Code: SC1+D, Dose Response: With dose response, Evaluation Type: Evaluation B (Post-1980)
[12] = Species/Cell Type: Mammalian polychromatic erythrocytes, Assay Type: Micronucleus test, chromosome aberrations, Assay Code: MNTT, Evaluation Type: Evaluation A (Pre-1980)
[13] = Species/Cell Type: Mouse embryo (AKR/ME) cells, Assay Type: Cell transformation, Assay Code: CTK+, Evaluation Type: Evaluation A (Pre-1980)
[14] = Species/Cell Type: Salmonella typhimurium (one or more of the five standard strains: TA98, TA100, TA1535, TA1537, and TA1538), Assay Type: Histidine reverse gene mutation, Ames assay, Assay Code: SAL+*, Activation: With metabolic activation, Evaluation Type: Evaluation A (Pre-1980)

Nc1c(O)cc(S(=O)(=O)O)c2ccccc12 was tested, and the mutagenic call [1] was “no conclusion”.

Cc1cccc(N=Nc2ccc(N(C)C)cc2)c1 was tested, and the mutagenic call [2] was “no conclusion”, the mutagenic call (Species/Cell Type: Escherichia coli polA (W3110 vs P3478), Assay Type: Rec-assay, DNA effects (bacterial DNA repair), Assay Code: RE2-, Evaluation Type: Evaluation A (Pre-1980)) was “inactive; negative” and the mutagenic call [3] was “no conclusion”. For the same molecule, the mutagenic call [4] was “active; positive”, the mutagenic call [5] was “inactive; negative” and the mutagenic call (Species/Cell Type: Mouse embryo (AKR/ME) cells, Assay Type: Cell transformation, Assay Code: CTK-, Evaluation Type: Evaluation A (Pre-1980)) was “inactive; negative”. For the same molecule, the mutagenic call [6] was “active; positive”, the call [7] was “active; positive” and the mutagenic call (Species/Cell Type: Nonhuman, Assay Type: Sister-chromatid exchange (SCE) in vitro, Assay Code: SC2+D, Dose Response: With dose response, Evaluation Type: Evaluation B (Post-1980)) was “active; positive”. The mutagenic call [8] was “active; positive”, the mutagenic call [9] was “active; positive” and the mutagenic call (Species/Cell Type: Saccharomyces cerevisiae, Assay Type: Mitotic recombination or gene conversion, Assay Code: YEH+*, Activation: With metabolic activation, Evaluation Type: Evaluation A (Pre-1980)) was “active; positive”. The mutagenic call (Species/Cell Type: Salmonella typhimurium, Assay Type: Forward and reverse gene mutation, host-mediated assay, Assay Code: HMA-, Evaluation Type: Evaluation A (Pre-1980)) was “inactive; negative” and the mutagenic call (Species/Cell Type: Syrian hamster embryo (SHE) cells, Assay Type: Cell transformation, clonal assay, Assay Code: CTCT, Evaluation Type: Evaluation A (Pre-1980)) was “no conclusion”.

With Nc1ccc2c(S(=O)(=O)O)cccc2c1S(=O)(=O)O the mutagenic call [1] was “no conclusion”.

Cc1ccc2cc3c(ccc4ccccc43)c3c2c1CC3 was tested, and the mutagenic call (Species/Cell Type: Chinese hamster lung (V79) cells, Assay Type: Forward gene mutation at the HPRT or ouabain locus, Assay Code: V79+*, Activation: With metabolic activation, Evaluation Type: Evaluation A (Pre-1980)) was “active; positive”, the mutagenic call (Species/Cell Type: Chinese hamster lung (V79) cells, Assay Type: Forward gene mutation, host-mediated assay, Assay Code: HMG+, Evaluation Type: Evaluation A (Pre-1980)) was “active; positive” and the mutagenic call (Species/Cell Type: Chinese hamster ovary (CHO) cells, Assay Type: Forward gene mutation at the HPRT locus, Assay Code: CHO+*, Activation: With metabolic activation, Evaluation Type: Evaluation B (Post-1980)) was “active; positive”. The mutagenic call [2] was “no conclusion”, the mutagenic call [4] was “active; positive” and the mutagenic call (Species/Cell Type: Fischer rat embryo (SA7/RE) cells, Assay Type: Cell transformation, viral enhanced, Assay Code: CTA+, Evaluation Type: Evaluation A (Pre-1980)) was “active; positive”. For the same molecule, the mutagenic call (Species/Cell Type: Human diploid fibroblasts, Assay Type: Unscheduled DNA synthesis (UDS) in vitro, DNA effects, Assay Code: UDH+, Evaluation Type: Evaluation A (Pre-1980)) was “active; positive”, the mutagenic call [10] was “active; positive” and the mutagenic call [11] was “active; positive”. For the same molecule, the mutagenic call [12] was “no conclusion”, the mutagenic call (Species/Cell Type: Mouse (BALB/c-3T3) cells, Assay Type: Cell transformation, Assay Code: CTB+D, Dose Response: With dose response, Evaluation Type: Evaluation A (Pre-1980)) was “active; positive” and the mutagenic call (Species/Cell Type: Mouse (C3H/10T1/2) cells, Assay Type: Cell transformation, Assay Code: CTH+D, Dose Response: With dose response, Evaluation Type: Evaluation A (Pre-1980)) was “active; positive”. The mutagenic call [13] was “active; positive”, the mutagenic call (Species/Cell Type: Mouse prostate cells, Assay Type: Cell transformation, Assay Code: CTM+D, Dose Response: With dose response, Evaluation Type: Evaluation A (Pre-1980)) was “active; positive” and the mutagenic call (Species/Cell Type: Mouse, Sex: Male, Assay Type: Sperm morphology, Assay Code: SPI+, Evaluation Type: Evaluation A (Pre-1980)) was “active; positive”. The mutagenic call [6] was “active; positive”, the mutagenic call (Species/Cell Type: Nonhuman, Assay Type: Chromosome aberrations in vitro, Assay Code: CY&-, Evaluation Type: Evaluation A (Pre-1980)) was “inactive; negative” and the call [7] was “active; positive”. The mutagenic call (Species/Cell Type: Nonhuman, Assay Type: Sister-chromatid exchange (SCE) in vitro, Assay Code: SC2+, Evaluation Type: Evaluation A (Pre-1980)) was “active; positive”, the mutagenic call (Species/Cell Type: Nonhuman, Assay Type: Sister-chromatid exchange (SCE) in vivo, Assay Code: SC3+D, Dose Response: With dose response, Evaluation Type: Evaluation A (Pre-1980)) was “active; positive” and the mutagenic call [9] was “active; positive”. For the same molecule, the mutagenic call [14] was “active; positive”, the mutagenic call (Species/Cell Type: Salmonella typhimurium, Assay Type: Forward and reverse gene mutation, body fluid assay, Assay Code: BFU-, Evaluation Type: Evaluation A (Pre-1980)) was “inactive; negative” and the mutagenic call (Species/Cell Type: Syrian hamster embryo (SA7/SHE) cells, Assay Type: Cell transformation, viral enhanced, Assay Code: CT7+, Evaluation Type: Evaluation A (Pre-1980)) was “active; positive”. The mutagenic call (Species/Cell Type: Syrian hamster embryo (SHE) cells, Assay Type: Cell transformation, clonal assay, Assay Code: CTC+D, Dose Response: With dose response, Evaluation Type: Evaluation A (Pre-1980)) was “active; positive” and the mutagenic call (Species/Cell Type: Syrian hamster embryo (SHE) cells, Assay Type: Cell transformation, focus assay, Assay Code: CTF+, Evaluation Type: Evaluation A (Pre-1980)) was “active; positive”.

For Nc1ccc(-c2ccccc2)cc1, the mutagenic call (Species/Cell Type: Escherichia coli polA (W3110 vs P3478), Assay Type: Rec-assay, DNA effects (bacterial DNA repair), Assay Code: RE2+, Evaluation Type: Evaluation A (Pre-1980)) was “active; positive”, the mutagenic call [3] was “no conclusion” and the mutagenic call [4] was “active; positive”. For the same molecule, the mutagenic call [5] was “inactive; negative”, the mutagenic call [12] was “no conclusion” and the mutagenic call [13] was “active; positive”. For the same molecule, the call [7] was “active; positive”, the mutagenic call [8] was “active; positive” and the mutagenic call (Species/Cell Type: Rat primary hepatocytes, Assay Type: Unscheduled DNA synthesis (UDS) in vitro, DNA effects, Assay Code: UDP+, Evaluation Type: Evaluation A (Pre-1980)) was “active; positive”. The mutagenic call (Species/Cell Type: Saccharomyces cerevisiae, Assay Type: Mitotic recombination or gene conversion, Assay Code: YEH+, Evaluation Type: Evaluation A (Pre-1980)) was “active; positive”, the mutagenic call [14] was “active; positive” and the mutagenic call (Species/Cell Type: Salmonella typhimurium, Assay Type: Forward and reverse gene mutation, body fluid assay, Assay Code: BFU+, Evaluation Type: Evaluation A (Pre-1980)) was “active; positive”. The mutagenic call (Species/Cell Type: Salmonella typhimurium, Assay Type: Forward and reverse gene mutation, host-mediated assay, Assay Code: HMA+, Evaluation Type: Evaluation A (Pre-1980)) was “active; positive” and the mutagenic call (Species/Cell Type: Syrian hamster embryo (SHE) cells, Assay Type: Cell transformation, clonal assay, Assay Code: CTC+, Evaluation Type: Evaluation A (Pre-1980)) was “active; positive”.

Cc1c2occc2cc2c1oc(=O)c1cnccc12 was tested, and the mutagenic call (Species/Cell Type: Human, Assay Type: Sister-chromatid exchange (SCE) in vitro, Assay Code: SC1+, Evaluation Type: Evaluation B (Post-1980)) was “active; positive”.

O=C(Nc1nc(-c2ccc([N+](=O)[O-])o2)cs1)C(F)(F)F was tested, and the mutagenic call (Species/Cell Type: Escherichia coli WP2, Assay Type: Tryptophan reverse gene mutation, Assay Code: WP2+, Evaluation Type: Evaluation A (Pre-1980)) was “active; positive”, the mutagenic call (Species/Cell Type: Escherichia coli WP2 UVRA, Assay Type: Tryptophan reverse gene mutation, Assay Code: WPU-, Evaluation Type: Evaluation A (Pre-1980)) was “inactive; negative” and the mutagenic call (Species/Cell Type: Salmonella typhimurium (one or more of the five standard strains: TA98, TA100, TA1535, TA1537, and TA1538), Assay Type: Histidine reverse gene mutation, Ames assay, Assay Code: SAL+, Evaluation Type: Evaluation A (Pre-1980)) was “active; positive”.

CC(=O)c1cc(O)c(C(C)C)c2cc(C)c(-c3c(C)cc4c(C(C)C)c(O)c(O)c(C=O)c4c3O)c(O)c12 was tested, and the mutagenic call (Species/Cell Type: Mammalian polychromatic erythrocytes, Assay Type: Micronucleus test, chromosome aberrations, Assay Code: MNTT, Evaluation Type: Evaluation B (Post-1980)) was “no conclusion” and the mutagenic call (Species/Cell Type: Nonhuman, Assay Type: Sister-chromatid exchange (SCE) in vivo, Assay Code: SC3+D, Dose Response: With dose response, Evaluation Type: Evaluation B (Post-1980)) was “active; positive”.

Nc1cnn(-c2ccccc2)c(=O)c1Cl was tested, and the mutagenic call (Species/Cell Type: Saccharomyces cerevisiae, Assay Type: Mitotic recombination or gene conversion, Assay Code: YEC-, Evaluation Type: Evaluation A (Pre-1980)) was “inactive; negative”.

With ONC1CCCCC1 the mutagenic call [2] was “no conclusion”, the mutagenic call (Species/Cell Type: Drosophila melanogaster, Sex: Male, Assay Type: Heritable translocation test, chromosome aberrations, Assay Code: DHTT, Evaluation Type: Evaluation A (Pre-1980)) was “no conclusion” and the mutagenic call (Species/Cell Type: Human lymphocytes or leukocytes, Assay Type: Chromosome aberrations in vitro, Assay Code: CY7-, Evaluation Type: Evaluation A (Pre-1980)) was “inactive; negative”.

With Cc1cc(C)cc(C2CO2)c1 (stereo not given) the mutagenic call [10] was “active; positive” and the mutagenic call [11] was “active; positive”.

With CO[C@@H]1C[C@](C)(O)Cc2cc3c(c(O)c21)C(=O)c1c(O)cc2c(c1C3=O)O[C@@H]1O[C@@]2(C)[C@H](O)[C@@H](N(C)C)[C@@H]1O the mutagenic call (Species/Cell Type: Mammalian polychromatic erythrocytes, Assay Type: Micronucleus test, chromosome aberrations, Assay Code: MNT+, Evaluation Type: Evaluation B (Post-1980)) was “active; positive” and the mutagenic call (Species/Cell Type: Nonhuman, Assay Type: Sister-chromatid exchange (SCE) in vitro, Assay Code: SC2+, Evaluation Type: Evaluation B (Post-1980)) was “active; positive”.

Reference: PubChem BioAssay AID1259408 (Genetic Toxicology Data Bank (GENE-TOX), 2018)
